Paper PMC12774438, “CBL ubiquitin ligase targets translation as a degrader E3” (Chemical Science, 2025)
Where a SMILES comes first, the peptide text is derived from it.

molecular target: T1, His-eIF4E (Homo sapiens, UniProt P06730); assay: SPR binary binding of peptides to immobilised His-eIF4E; conditions: 25°C, ligand His-eIF4E amine-coupled to CM5 chip, steady-state affinity, analyte 0.005859-0.75 µM, n = 3, mean ± SD
T1 construct: made in house; host or cells: E. coli BL21(DE3) Gold
Procedure: Supplementary Figure 4. Related to Table 2
A. Sensorgrams (left) and binding curves (right) showing a three-fold dilution series […]
over immobilised eIF4E. […]
(1 picture or pasted object on this page, not shown here) […]
Data were analysed by […] affinity analysis using Cytiva Biacore TM Insight Evaluation Software. Sensorgrams for figures were made using GraphPad Prism 9.5.1.
Studying the interactions between eIF4E and eIFTerminator1-4
His-eIF4E protein was immobilised on Cytiva’s sensor chip CM5 using amine-coupling. The chip was docked and primed in running buffer (50 mM HEPES pH 7.5, 100 mM NaCl, 1 mM TCEP, 0.05% Tween20). Cytiva’s amine-coupling kit was used to capture the ligand. Briefly, 0.4 M EDC and 0.1 M NHS from the kit were mixed 50:50 and injected to activate the chip surface for 300 s at 10 μL/min. His-eIF4E was prepared for amine coupling as described previously (15). After achieving a capture level of approximately 120 RU, the remaining binding sites were blocked with ethanolamine hydrochloride-NaOH (pH 8.5) from the kit for 420 s at a flow rate of 10 μL/min. Reference surfaces were prepared in duplicates […]
Multi-cycle experiments were performed to gain steady-state binding affinity of eIFTerminator1-4 to His-eIF4E. At a flow rate of 30 μL/min, 20 startups with a 30 s contact time and a 30 s dissociation time were done prior to sample injection. An 8-point, 1 in 2 dilution series of eIFTerminator1-4 or eIF4G1-D5S peptide was injected (0.005859 – 0.75 μM) with a 100 s contact time and a 250 s dissociation time at a flow rate of 30 μL/min. The peptides were dissolved in running buffer and filtered using Coster Spin-X 0.22 μM centrifuge tube filters as described above. […]

T1 sequence (P06730 whole entry): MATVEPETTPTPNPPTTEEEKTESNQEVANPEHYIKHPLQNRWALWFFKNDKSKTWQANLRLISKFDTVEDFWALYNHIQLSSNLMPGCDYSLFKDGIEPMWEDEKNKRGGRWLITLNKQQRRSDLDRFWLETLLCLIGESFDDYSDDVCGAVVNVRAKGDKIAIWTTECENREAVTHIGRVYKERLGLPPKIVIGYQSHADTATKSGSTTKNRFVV

Molecule	Kd
CC[C@H](C)[C@H](NC(=O)[C@H](Cc1c[nH]c2ccccc12)NC(=O)[C@H](CO)NC(=O)[C@H](CC(=O)O)NC(=O)[C@H](CCSC)NC(=O)[C@H](CCC(=O)O)NC(=O)[C@H](CCC(=O)O)NC(=O)[C@@H](NC(=O)[C@@H](NC(=O)[C@H](CCSC)NC(=O)CNC(=O)[C@H](CO)NC(=O)CNC(=O)CNC(=O)[C@H](Cc1ccccc1)NC(=O)CNC(=O)[C@H](CC(C)C)NC(=O)[C@H](CC(C)C)NC(=O)[C@H](Cc1ccccc1)NC(=O)[C@H](CCC(=O)O)NC(=O)[C@H](CCCNC(=N)N)NC(=O)[C@H](CO)NC(=O)[C@H](Cc1ccc(O)cc1)NC(=O)[C@H](CCCNC(=N)N)NC(=O)[C@H](CCCCN)NC(=O)[C@@H](N)CCCCN)[C@@H](C)O)C(C)C)C(=O)N[C@@H](CCCCN)C(=O)N[C@@H](CO)C(=O)N[C@@H](Cc1c[nH]c2ccccc12)C(=O)N[C@@H](CC(=O)O)C(=O)N[C@@H](CCC(N)=O)C(=O)N[C@@H](CCCNC(=N)N)C(N)=O [eIFTerminator1] (H-KKRYSREFLLGFGGSGMTVEEMDSWIKSWDQR-NH2)	54 ± 9 nM
CC[C@H](C)[C@H](NC(=O)[C@H](Cc1c[nH]c2ccccc12)NC(=O)[C@H](CO)NC(=O)[C@H](CC(=O)O)NC(=O)[C@H](CCSC)NC(=O)[C@H](CCC(=O)O)NC(=O)[C@H](CCC(=O)O)NC(=O)[C@@H](NC(=O)[C@@H](NC(=O)[C@H](CCSC)NC(=O)CNC(=O)[C@H](CO)NC(=O)CNC(=O)CNC(=O)[C@H](CO)NC(=O)CNC(=O)CNC(=O)[C@H](CO)NC(=O)CNC(=O)CNC(=O)[C@H](Cc1ccccc1)NC(=O)CNC(=O)[C@H](CC(C)C)NC(=O)[C@H](CC(C)C)NC(=O)[C@H](Cc1ccccc1)NC(=O)[C@H](CCC(=O)O)NC(=O)[C@H](CCCNC(=N)N)NC(=O)[C@H](CO)NC(=O)[C@H](Cc1ccc(O)cc1)NC(=O)[C@H](CCCNC(=N)N)NC(=O)[C@H](CCCCN)NC(=O)[C@@H](N)CCCCN)[C@@H](C)O)C(C)C)C(=O)N[C@@H](CCCCN)C(=O)N[C@@H](CO)C(=O)N[C@@H](Cc1c[nH]c2ccccc12)C(=O)N[C@@H](CC(=O)O)C(=O)N[C@@H](CCC(N)=O)C(=O)N[C@@H](CCCNC(=N)N)C(N)=O [eIFTerminator3] (H-KKRYSREFLLGFGGSGGSGGSGMTVEEMDSWIKSWDQR-NH2)	39.5 ± 3.4 nM

Next, values leading:

Kd	Molecule
38.9 ± 6.5 nM	CC(C)C[C@H](NC(=O)[C@H](CC(C)C)NC(=O)[C@H](Cc1ccccc1)NC(=O)[C@H](CCC(=O)O)NC(=O)[C@H](CCCNC(=N)N)NC(=O)[C@H](CO)NC(=O)[C@H](Cc1ccc(O)cc1)NC(=O)[C@H](CCCNC(=N)N)NC(=O)[C@H](CCCCN)NC(=O)[C@@H](N)CCCCN)C(=O)NCC(=O)N[C@@H](Cc1ccccc1)C(N)=O [eIF4G1-D5S] (H-KKRYSREFLLGF-NH2)
67.5 ± 7.4 nM	CC[C@H](C)[C@H](NC(=O)[C@H](Cc1c[nH]c2ccccc12)NC(=O)[C@H](CO)NC(=O)[C@H](CC(=O)O)NC(=O)[C@H](CCSC)NC(=O)[C@H](CCC(=O)O)NC(=O)[C@H](CCC(=O)O)NC(=O)[C@@H](NC(=O)[C@@H](NC(=O)[C@@H](N)CCSC)[C@@H](C)O)C(C)C)C(=O)N[C@@H](CCCCN)C(=O)N[C@@H](CO)C(=O)N[C@@H](Cc1c[nH]c2ccccc12)C(=O)N[C@@H](CC(=O)O)C(=O)N[C@@H](CCC(N)=O)C(=O)N[C@@H](CCCNC(=N)N)C(=O)NCC(=O)NCC(=O)N[C@@H](CO)C(=O)NCC(=O)N[C@@H](CCCCN)C(=O)N[C@@H](CCCCN)C(=O)N[C@@H](CCCNC(=N)N)C(=O)N[C@@H](Cc1ccc(O)cc1)C(=O)N[C@@H](CO)C(=O)N[C@@H](CCCNC(=N)N)C(=O)N[C@@H](CCC(=O)O)C(=O)N[C@@H](Cc1ccccc1)C(=O)N[C@@H](CC(C)C)C(=O)N[C@@H](CC(C)C)C(=O)NCC(=O)N[C@@H](Cc1ccccc1)C(N)=O [eIFTerminator2] (H-MTVEEMDSWIKSWDQRGGSGKKRYSREFLLGF-NH2)
60.6 ± 8.5 nM	CC[C@H](C)[C@H](NC(=O)[C@H](Cc1c[nH]c2ccccc12)NC(=O)[C@H](CO)NC(=O)[C@H](CC(=O)O)NC(=O)[C@H](CCSC)NC(=O)[C@H](CCC(=O)O)NC(=O)[C@H](CCC(=O)O)NC(=O)[C@@H](NC(=O)[C@@H](NC(=O)[C@@H](N)CCSC)[C@@H](C)O)C(C)C)C(=O)N[C@@H](CCCCN)C(=O)N[C@@H](CO)C(=O)N[C@@H](Cc1c[nH]c2ccccc12)C(=O)N[C@@H](CC(=O)O)C(=O)N[C@@H](CCC(N)=O)C(=O)N[C@@H](CCCNC(=N)N)C(=O)NCC(=O)NCC(=O)N[C@@H](CO)C(=O)NCC(=O)NCC(=O)N[C@@H](CO)C(=O)NCC(=O)NCC(=O)N[C@@H](CO)C(=O)NCC(=O)N[C@@H](CCCCN)C(=O)N[C@@H](CCCCN)C(=O)N[C@@H](CCCNC(=N)N)C(=O)N[C@@H](Cc1ccc(O)cc1)C(=O)N[C@@H](CO)C(=O)N[C@@H](CCCNC(=N)N)C(=O)N[C@@H](CCC(=O)O)C(=O)N[C@@H](Cc1ccccc1)C(=O)N[C@@H](CC(C)C)C(=O)N[C@@H](CC(C)C)C(=O)NCC(=O)N[C@@H](Cc1ccccc1)C(N)=O [eIFTerminator4] (H-MTVEEMDSWIKSWDQRGGSGGSGGSGKKRYSREFLLGF-NH2)

molecular target: T2, His-eIF4E (UniProt P06730 1-217); assay: SPR; His-eIF4E immobilised; dilution series of eIFTerminator with a fixed, saturating concentration of CBL (1 µM) as analyte; steady-state affinities, ternary complex; conditions: both partners purified
T2 construct: eukaryotic translation initiation factor 4E (eIF4E); Immobilised on the SPR chip; also called eukaryotic translation initiation factor 4E; source: recombinant
T2 sequence (P06730 whole entry): as the sequence (P06730 whole entry) above

Kd	Molecule
77.8 nM	eIFTerminator1-CBL binary complex (complex) chain 1: KKRYSREFLLGFGGSGMTVEEMDSWIKSWDQM chain 2: PPGTVDKKMVEKCWKLMDKVVRLCQNPKLALKNSPPYILDLLPDTYQHLRTILSRYEGKMETLGENEYFRVFMENLMKKTKQTISLFKEGKERMYEENSQPRRNLTKLSLIFSHMLAELKGIFPSGLFQGDTFRITKADAAEFWRKAFGEKTIVPWKSFRQALHEVHPISSGLEAMALKSTIDLTCNDYISVFEFDIFTRLFQPWSSLLRNWNSLAVTHPGYMAFLTYDEVKARLQKFIHKPGSYIFRLSCTRLGQWAIGYVTADGNILQTIPHNKPLFQALIDGFREGFYLFPDGRNQNPDLTGLCEPTPQDHIKVTQEQYELYCEMGSTFQLCKICAENDKDVKIEPCGHLMCTSCLTSWQESEGQGCPFCRCEIKGTEPIVVDPFD
60.7 nM	eIFTerminator2-CBL binary complex (complex) chain 1: KKRYSREFLLGFGGSGGSGGSGMTVEEMDSWIKSWDQM chain 2: PPGTVDKKMVEKCWKLMDKVVRLCQNPKLALKNSPPYILDLLPDTYQHLRTILSRYEGKMETLGENEYFRVFMENLMKKTKQTISLFKEGKERMYEENSQPRRNLTKLSLIFSHMLAELKGIFPSGLFQGDTFRITKADAAEFWRKAFGEKTIVPWKSFRQALHEVHPISSGLEAMALKSTIDLTCNDYISVFEFDIFTRLFQPWSSLLRNWNSLAVTHPGYMAFLTYDEVKARLQKFIHKPGSYIFRLSCTRLGQWAIGYVTADGNILQTIPHNKPLFQALIDGFREGFYLFPDGRNQNPDLTGLCEPTPQDHIKVTQEQYELYCEMGSTFQLCKICAENDKDVKIEPCGHLMCTSCLTSWQESEGQGCPFCRCEIKGTEPIVVDPFD
81.8 nM	eIFTerminator3-CBL binary complex (complex) chain 1: MTVEEMDSWIKSWDQMGGSGKKRYSREFLLGF chain 2: PPGTVDKKMVEKCWKLMDKVVRLCQNPKLALKNSPPYILDLLPDTYQHLRTILSRYEGKMETLGENEYFRVFMENLMKKTKQTISLFKEGKERMYEENSQPRRNLTKLSLIFSHMLAELKGIFPSGLFQGDTFRITKADAAEFWRKAFGEKTIVPWKSFRQALHEVHPISSGLEAMALKSTIDLTCNDYISVFEFDIFTRLFQPWSSLLRNWNSLAVTHPGYMAFLTYDEVKARLQKFIHKPGSYIFRLSCTRLGQWAIGYVTADGNILQTIPHNKPLFQALIDGFREGFYLFPDGRNQNPDLTGLCEPTPQDHIKVTQEQYELYCEMGSTFQLCKICAENDKDVKIEPCGHLMCTSCLTSWQESEGQGCPFCRCEIKGTEPIVVDPFD
